Entries after “also recorded” stand apart in the source; their conditions may differ. Where a SMILES comes first, the peptide text is derived from it. [ ]: non-standard residue; d: D form.
Columns and labels:
[1] = test system: ZR-75-1/MUC1siRNA cells; assay: Viable cell number by trypan blue exclusion, ZR-75-1/MUC1siRNA; format: cell-based, human; conditions: 5 μM; MUC1 silenced
Protocol: FIGS. 4A-E. Selectivity of MUC1/CQC for MUC1 expressing breast cancer cells. (FIG. 4A) ZR-75-1 cells were stably infected with an empty lentivirus (vector) or one expressing a MUC1 siRNA. Lysates for the infected cells were immunoblotted with the indicated antibodies. (FIG. 4B) ZR-75-1/vector cells were left untreated (diamonds), and ZR-75-1/vector (squares) and ZR-75-1/MUC1siRNA (triangles) cells were treated with 5 μM MUC1/CQC peptide for the indicated times. Viable cell number was determined by trypan blue exclusion. (FIG. 4C) 293 cells were left untreated (diamonds), and treated with 5 μM MUC1/CQC (squares) or MUC1/AQA (triangles) for the indicated times. Viable cell number was determined by trypan blue exclusion. (FIG. 4D) MCF-10A cells were left untreated (left panel), and treated with 5 μM MUC1/CQC (middle panel) or MUC1/AQA (right panel). At 3 d, cells were analyzed for cell cycle distribution. […] Viable cell number was determined by trypan blue exclusion.
Human breast cancer ZR-75-1, ZR-75-1/vector, ZR-75-1/MUC1siRNA (Ren et al., 2004) cell lines were grown in RPMI1640 medium supplemented with 10% heat-inactivated fetal bovine serum (HI-FBS), 100 U/ml penicillin, and 100 μg/ml streptomycin (Invitrogen) in a humidified incubator at 37° C. and 5% CO2. […] Viability was determined by trypan blue exclusion. […]

[2] = Body weight of nude mice under peptide administration; format: in vivo
[3] = test system: multiple carcinoma cell lines; assay: Inventors' recent studies of MUC1 C-terminal peptides on carcinoma cell lines; format: cell-based; conditions: L-amino acid peptide
Text: However, these MUC1-C-terminal peptides consists of L-amino acids. […] Consequently, they have generated an all-dextro form of the above described shorter MUC1 C-terminal peptide, in which the L-amino acids were changed to D-amino acids (GO-203). Moreover, to determine the minimum amino acid residues from the MUC1-C-terminal region that are required to retain the cell killing activity, they have also generated many different versions of GO-203 as described in FIG. 8.

CC[C@H](C)[C@H](NC(=O)[C@H](CC(=O)O)NC(=O)[C@H](CC(C)C)NC(=O)[C@H](CCC(N)=O)NC(=O)CNC(=O)[C@H](Cc1ccc(O)cc1)NC(=O)[C@H](CC(N)=O)NC(=O)[C@H](CCCCN)NC(=O)[C@H](CCCNC(=N)N)NC(=O)[C@H](CCCNC(=N)N)NC(=O)[C@H](CS)NC(=O)[C@H](CCC(N)=O)NC(=O)[C@H](CS)NC(=O)[C@@H](CCCNC(=N)N)NC(=O)[C@@H](CCCNC(=N)N)NC(=O)[C@@H](CCCNC(=N)N)NC(=O)[C@@H](CCCNC(=N)N)NC(=O)[C@@H](CCCNC(=N)N)NC(=O)[C@@H](CCCNC(=N)N)NC(=O)[C@@H](CCCNC(=N)N)NC(=O)[C@@H](CCCNC(=N)N)NC(=O)[C@H](N)CCCNC(=N)N)C(=O)N[C@@H](Cc1ccccc1)C(=O)N1CCC[C@H]1C(=O)O [MUC1/CQC] (H-[dR][dR][dR][dR][dR][dR][dR][dR][dR]CQCRRKNYGQLDIFP-OH; N-terminus and C-terminus assumed)
effect on growth (viable cell number) [1]: substantially less effect; also recorded: abrogated the MUC1/CQC cytotoxic effects
effect on weight of the individual mice ([2]; 50 mg/kg IP once each day over 11 d, female nude mice): no apparent effect
effect on bodyweight after stopping administration ([2]; next 28 d after 50 mg/kg IP daily for 11 d, data not shown): no subsequent effect on bodyweight
growth of carcinoma cell lines [3]: active in inhibiting growth of multiple carcinoma cell lines

Reference: patent US9546201B2, “MUC-1 cytoplasmic domain peptides as inhibitors of cancer” (DANA-FARBER CANCER INSTITUTE, INC., priority 2008, dated 2017)
